# Patent US20250114313A1, “OLIGO-BENZAMIDE ANALOGS AND THEIR USE IN CANCER TREATMENT” (BOARD OF REGENTS, THE UNIVERSITY OF TEXAS SYSTEM, priority 2022, published 2025)
# Where two headings read alike, the source gives them in different places.
# Experiments:
# [1] = test system: p-PERK, IRE1α, eIF2α, CHOP in TNBC cells; assay: Western blotting of UPR proteins, TNBC cells; format: cell-based, Human; settings: 1 μM
# Description: Western blotting: Whole cell lysates from breast cancer cells were prepared with 2× sample buffer (60 mM Tris-HCl, pH 6.8, 2% sodium dodecyl sulfate, 10% glycerol), and before loading mixed with loading buffer (5% 2-mercaptoethanol, 0.1% bromophenol blue) and boiled for denaturation, as previously described.^33 Proteins were separated by SDS-PAGE and subjected to Western analysis using antibodies. To detect nascent translated proteins, puromycin (final concentration 10 μg/mL) was added into cell plates 30 minutes before harvesting cells. Then samples were subjected to the Western blotting. Nascent proteins were detected by anti-puromycin antibody.
# vinculin = biological target: T1, vinculin (Homo sapiens, UniProt P18206); assay: Cellular thermal shift assay, vinculin; format: binding; settings: 10 μM, SUM-159 cells
# T1 construct: heat stability of LAL or vinculin protein in SUM-159 cells; endogenous in cells; host or cells: SUM-159
# Description: Cellular Thermal Shift Assay (CETSA): Cellular Thermal Shift Assays were performed as described previously^36. Briefly, cells were treated with DMSO or 10 μM ERX-41 for 30 min, then trypsinized, pelleted and resuspended in PBS supplemented with Halt protease inhibitor cocktail (Thermo Scientific), with DMSO or 10 μM ERX-41. Resuspended cells were aliquoted into PCR strips. The cells were incubated in thermal cycler (Bio-rad) at gradient temperatures for 3 minutes, followed by incubation at 25° C. for 3 minutes. Then cells were snap-frozen in liquid nitrogen. Freeze-thaw the cells twice using liquid nitrogen. Then transfer samples into Eppendorf tubes, followed by briefly vortex and centrifuge at 20,000 g for 20 minutes at 4° C. Mix cleared cell lysates with ⅓ volume of 4× Laemmli sample buffer. After boiling, cell lysates were resolved in SDS-PAGE followed by western blotting.
# HMEC cells = assay: Western blotting (UPR proteins, puromycin labeled nascent proteins), HMEC; format: cell-based, human; settings: 1 μM
# [2] = test system: TNBC cells (SUM-159, MDA-MB-231); assay: MTT cell viability, TNBC cells; format: cell-based, Human; settings: for IC50: MTT cell viability assays, read-out: antiproliferative IC50 against TNBC cells
# Description: Cell viability assays: Cells were seeded in 96-well plates (2×10^3 cells/well) one day before the treatment. Cells were treated with varying concentrations of ERX-41 or ERX-11 analogs for 3-6 days. Then effects of ERX-41 or ERX-11 analogs on cell viability were measured in triplicate or sextuplicate with multiple biological replicates using the WST-1 (Promega), MTT as previously described^33 or CellTiter-Glo 2.0 (Promega) assays.
# [3] = test system: parental SUM-159 xenografts; assay: Parental SUM-159 xenografts; format: in vivo, SCID mice
# Description: Knockout studies: For xenograft knockout tumor models, 1.8×10^6SUM159 parental, or 1.8×10^6SUM159-LIPA KO cells were harvested with 1% trypsin-EDTA, washed and resuspended in sterile PBS. Cells were initially implanted into the mammary fat pads of six-week-old female C.B-17 (SCID) mice purchased from Envigo (Indianapolis, IN, USA). Mice were monitored twice weekly for tumor growth measured by Vernier calipers where tumor volume was calculated by the formula (length×width^2)/2. Tumors were dissected into 2 mm cubes when they reached 800 mm^3 in size and subsequently implanted into the mammary fat pad of twelve SCID female mice. Once tumor fragments reached 150 mm^3 in size, mice were randomly divided into vehicle group (n=6, control, 0.3% Hydroxy cellulose, i.p.) and treatment group (n=6, ERX-41, 10 mg/kg/day/i.p.). Institutional guidelines were followed to determine experimental end points.
# T1 sequence (P18206 1-1066 isoform P18206-2): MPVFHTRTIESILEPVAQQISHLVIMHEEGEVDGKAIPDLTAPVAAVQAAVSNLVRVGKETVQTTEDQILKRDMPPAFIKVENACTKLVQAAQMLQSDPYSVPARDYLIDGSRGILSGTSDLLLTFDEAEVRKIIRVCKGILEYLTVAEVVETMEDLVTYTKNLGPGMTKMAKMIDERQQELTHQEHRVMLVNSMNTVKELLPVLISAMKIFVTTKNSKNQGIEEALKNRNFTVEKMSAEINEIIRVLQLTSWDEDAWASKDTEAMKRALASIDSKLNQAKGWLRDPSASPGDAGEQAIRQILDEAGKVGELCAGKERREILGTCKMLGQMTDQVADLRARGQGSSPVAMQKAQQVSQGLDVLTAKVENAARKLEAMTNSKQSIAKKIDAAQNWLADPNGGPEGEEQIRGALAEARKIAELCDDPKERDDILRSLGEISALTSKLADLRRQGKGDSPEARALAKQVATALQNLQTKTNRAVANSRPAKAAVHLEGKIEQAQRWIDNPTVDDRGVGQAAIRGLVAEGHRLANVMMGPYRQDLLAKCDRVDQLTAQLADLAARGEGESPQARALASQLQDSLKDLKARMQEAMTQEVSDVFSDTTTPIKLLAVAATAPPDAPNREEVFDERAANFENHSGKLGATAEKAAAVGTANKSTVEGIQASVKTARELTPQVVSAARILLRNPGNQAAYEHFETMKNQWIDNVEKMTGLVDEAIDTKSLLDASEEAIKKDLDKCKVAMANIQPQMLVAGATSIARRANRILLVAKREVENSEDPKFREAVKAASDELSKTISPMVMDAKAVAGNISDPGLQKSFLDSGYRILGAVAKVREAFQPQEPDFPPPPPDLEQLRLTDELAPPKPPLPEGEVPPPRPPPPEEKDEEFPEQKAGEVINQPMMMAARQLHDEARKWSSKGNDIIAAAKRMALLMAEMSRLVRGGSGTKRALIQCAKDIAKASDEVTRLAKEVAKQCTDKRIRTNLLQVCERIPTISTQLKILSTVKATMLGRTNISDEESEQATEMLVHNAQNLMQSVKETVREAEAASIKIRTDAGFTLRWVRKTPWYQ
smiles,measurement,setting,value
CC(C)COc1cc(C(=O)Nc2ccc(C(=O)N[C@H]3CC[C@H](C)CC3)cc2OCC(C)C)ccc1NC(=O)c1ccc([N+](=O)[O-])c(OCCO)c1 [ERX-41],induction of ER stress / UPR proteins,"[1]; p-PERK, IRE1α, eIF2α, CHOP",induces ER stress and downstream UPR pathways
same,"PERK activation and peIF2α, parental SUM-159",[1]; western,activates PERK
same,thermal stability of vinculin,vinculin,did not affect vinculin thermal stability
same,global de novo protein synthesis in HMEC,HMEC cells,not HMEC cells
same,induction of ER stress / UPR proteins in HMEC,HMEC cells,not in HMEC cells
same,IC50,[2]; Homo sapiens,100 to 125 nM
same,IC50,[2],100 nM
same,"enhancement of potency in TNBC, ERX-41 vs ERX-11",[2]; from IC50>10 μM to 100 nM,> 100 fold
same,"Ki67 staining, parental xenografts",[3]; at sacrifice,decrease in Ki67 staining
same,response of parental xenografts,"[3]; i.p., 10 mg/kg/day",responded significantly
